Measurements published in BindingDB's records for doi:10.1016/j.bmcl.2004.05.028 (Gsk, 2004).

Biological target: Transient receptor potential cation channel subfamily V member 1 (Homo sapiens, UniProt Q8NER1)
Assay: FLIPR (Fluorescence Imaging Plate Reader)-Based Ca2+ Assay
Conditions: pH 7.2; 25 °C
Description: One day before the assay was performed, human TRPV1 expressed in 1321N1 astrocytoma cells were plated onto 96-well assay plates and grown until 2.5 h before the assay, and the cells were loaded with the Ca2+ reporter dye Fluo3-AM for 2 h at room temperature. After this, the cells were washed, and continuously being incubated for 30 min with medium containing test compounds at a range of different concentrations.

Chain of Transient receptor potential cation channel subfamily V member 1 (Q8NER1 whole entry): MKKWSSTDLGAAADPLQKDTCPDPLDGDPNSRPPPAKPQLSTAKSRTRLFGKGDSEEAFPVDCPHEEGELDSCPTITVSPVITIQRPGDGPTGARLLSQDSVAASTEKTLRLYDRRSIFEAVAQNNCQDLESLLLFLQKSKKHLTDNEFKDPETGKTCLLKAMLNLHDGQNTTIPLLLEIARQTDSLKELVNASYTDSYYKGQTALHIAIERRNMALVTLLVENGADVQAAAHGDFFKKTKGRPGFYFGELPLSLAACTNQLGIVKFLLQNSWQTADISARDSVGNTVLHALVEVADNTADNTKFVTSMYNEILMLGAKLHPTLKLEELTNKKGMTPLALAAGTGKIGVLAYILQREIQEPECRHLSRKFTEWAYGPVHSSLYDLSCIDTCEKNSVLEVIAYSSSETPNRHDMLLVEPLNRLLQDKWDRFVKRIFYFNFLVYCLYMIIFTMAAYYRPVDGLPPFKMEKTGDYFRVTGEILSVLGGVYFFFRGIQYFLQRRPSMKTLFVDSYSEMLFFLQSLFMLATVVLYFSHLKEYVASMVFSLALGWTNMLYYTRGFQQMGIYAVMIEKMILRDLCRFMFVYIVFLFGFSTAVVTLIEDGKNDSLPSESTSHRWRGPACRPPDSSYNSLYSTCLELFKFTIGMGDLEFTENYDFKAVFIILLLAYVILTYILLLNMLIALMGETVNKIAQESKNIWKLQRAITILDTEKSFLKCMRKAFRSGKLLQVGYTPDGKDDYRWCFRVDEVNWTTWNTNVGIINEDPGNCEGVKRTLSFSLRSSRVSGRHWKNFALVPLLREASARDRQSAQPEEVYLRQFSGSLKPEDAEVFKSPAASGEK

Row | Structure (SMILES) | EC50 [nM]
1 | COc1cccc(NC(=O)/C=C/c2ccc(Cl)cc2)c1 [(2E)-3-(4-chlorophenyl)-N-(3-methoxyphenyl)prop-2-enamide] | 20
2 | CCN(CCNC(=O)Nc1ccccc1Br)c1cccc(C)c1 [3-(2-bromophenyl)-1-{2-[ethyl(3-methylphenyl)amino]ethyl}urea] | 16
3 | Oc1cc2c(cc1O)CN(C(=S)NCCc1ccc(Cl)cc1)CCC2 [N-[2-(4-chlorophenyl)ethyl]-7,8-dihydroxy-2,3,4,5-tetrahydro-1H-2-benzazepine-2-carbothioamide] | 32
